# Measured values reported in a melting point compilation (Tetko et al.; mined from patent text by program, amines drawn as free bases though some values may be those of a salt).
row,SMILES,melting point [°C]
1,NS(=O)(=O)c1ccccc1-c1ccc(C(=O)N2Cc3ccc(C(=O)NCc4cccnc4)n3Cc3ccccc32)cc1,153 to 156
2,NC(=O)c1cc2c(c(C(=O)O)c1)NCCC2,268 to 269
3,O=C(c1nc(-c2ccccc2)nc2ccccc12)N1CCC(CCO)CC1,146
4,Cc1c(C)c2c(c(C)c1O)C(=O)CC(COc1ccc(CC3SC(=O)NC3=O)cc1)O2 (configuration not stated),249 to 252
5,CC(C#N)(Cn1nnc2cc(Cl)ccc21)NC(=O)c1ccc(OC(F)(F)F)cc1 (configuration not stated),135
6,O=C(NCCC[C@H]1OC[C@H](c2cccc3cc(OCC4CC4)ccc32)CO1)Oc1ccc(Cl)cc1,159 to 162
7,CCN(C)c1ccc(Cl)nn1,61 to 63
8,Cc1ccc2sc(S(N)(=O)=O)cc2c1,212 to 213
9,Clc1ccc2nc(-c3ccco3)c(I)n2n1,260 to 263
10,Cc1cc(=O)oc2c(C)c(O)c([N+](=O)[O-])cc12,230 to 232
11,CC(F)(F)S(=O)(=O)c1c(C(N)=S)nn(-c2c(Cl)cc(C(F)(F)F)cc2Cl)c1N,228 to 229
12,Nc1nc2cc(Br)ccn2n1,190 to 192
13,c1snc2c1Sc1csnc1S2,190 to 191
14,CC(=O)NCCc1cn(S(=O)(=O)c2ccc(C)cc2)c2ccc(O)cc12,173 to 174
15,O=[N+]([O-])c1ccc(Oc2ccc([N+](=O)[O-])cc2-c2ccc(C(F)(F)F)cc2C(F)(F)F)c(-c2ccc(C(F)(F)F)cc2C(F)(F)F)c1,72 to 73
16,CCOc1cccc(-n2cc(-c3ccc4c(c3)OCO4)c3c(N)ncnc32)c1,153 to 155
17,COC(=O)C(Cl)(C(=O)OC)[C@@H](C[N+](=O)[O-])c1ccccc1,175 to 177
18,CS(=O)(=O)CC(N)C1(c2ccc(Cl)cc2)CCC1 (configuration not stated),134 to 135
19,Nc1ccn(C2CN3CCC2CC3)n1 (configuration not stated),112 to 115
20,Fc1ccc2c(c1)C(OCc1c(F)cccc1F)C(Cn1ccnc1)S2 (configuration not stated),167 to 168
21,NS(=O)(=O)c1ccc(-c2cn(-c3nc(-c4ccc(Cl)cc4)cc(C(F)(F)F)n3)cn2)s1,284
22,CC(C)N1CC(C(=O)c2ccc(Cc3ccc(F)cc3)o2)=C(O)C1=O,155 to 157
23,CCN(Cc1nc2cc(OC)c(OC)cc2c(-c2ccc(OC)c(OC)c2)c1C(C)=O)C(C)(C)C,156 to 157
24,Cc1cc(-n2nc(C(F)(F)F)cc2-c2ccc(S(C)(=O)=O)cc2)ccc1Br,127 to 129

row,SMILES,melting point [°C]
1,CCOC=Nc1c(C(=O)OCC)cnn1C,32 to 34
2,C[Si](C)(C)N=C(C(=N[Si](C)(C)C)c1ccccc1)c1ccccc1,69 to 70
3,COC(=O)C(NS(=O)(=O)c1ccc(-c2ccc(NC(=O)c3cc4cc(OC)ccc4o3)cc2)cc1)C(C)C (configuration not stated),234 to 235
4,CC(C(=O)NN1CCOCC1)C(C#N)(c1ccccc1)c1ccccc1 (configuration not stated),210 to 215
5,Cc1ccccc1-c1ccc(C(=O)N2Cc3ccc(C(=O)NCCc4ccc(Cl)cc4)n3Cc3ccccc32)cc1C,169 to 171
6,O=C1NC(=O)C(CC(=O)N2CCN(c3cccc(CNC(=O)c4nc5ccccc5c(=O)[nH]4)c3)CC2)N1 (configuration not stated),280 to 282
7,O=[N+]([O-])C1COc2cc3c(cc2C1c1ccccc1C1OCCCO1)OCO3 (configuration not stated),207
8,CCCc1c(C(=O)C2CCCC2)c2ccc(C(N)=O)cc2n1Cc1ccccc1Cl,202
9,Cc1ccc(S(=O)(=O)OC[C@@H](O)Cc2cc3ccccc3[nH]2)cc1,96 to 97
10,COC(=O)c1nc(-c2ccccc2)c(-c2ccc(=O)n(C(C)C)n2)cc1C#N,136 to 138
11,CCOC(=O)c1cnn(-c2ccc(F)cc2)c1O,127 to 128
12,CC(N)=CC(=O)CS(=O)(=O)NC(C)C,119 to 121
13,CC(=O)Nc1ccc2c(c1)CC(N(C)C)C2 (configuration not stated),94 to 96
14,COc1c(N)cccc1NC(=O)c1ccc(Br)cc1,111 to 112
15,N#Cc1cnc2sc(I)cc2c1Cl,181 to 182
16,CCOC(=O)NN=Cc1c[nH]c(Cc2ccccc2)n1,184 to 185
17,CCCCC(CC)COc1ccc2c(-c3ccc(C=O)cc3)c3cc(OCC(CC)CCCC)ccc3c(-c3ccc(C=O)cc3)c2c1 (configuration not stated),125 to 127
18,Brc1ccc2sc3ccccc3c2c1,112 to 116
19,CCn1ncnc1COc1nn2c(-c3ccccc3F)nncc2c1C(C)(C)C,105
20,CSC1Oc2ccc(Cl)cc2C1=O (configuration not stated),76 to 78
21,COc1ccc(/C(=C\C(=O)N2CCNCC2)c2ccccc2Cl)cc1,108 to 110
22,Cc1nc(=O)c(O)c(-c2ccc(Cc3ccc(F)cc3)cn2)[nH]1,> 300
23,COC(=O)CSC(c1ccccc1OC)c1ccccc1OC,65 to 67
24,CS(=O)(=O)c1cc(C(=O)O)ccc1Oc1ccc([N+](=O)[O-])cc1,140 to 150

row,SMILES,melting point [°C]
1,CC(C)(C)OC(=O)NC1CCCOCC=CC2CC2(C(=O)NS(=O)(=O)C2CC2)NC(=O)C2CC(OC(=O)c3ccc(-c4ccccc4)cc3)CN2C1=O (configuration not stated),160 to 162
2,C#CCOc1ccc(C(=O)C=Cc2cccnc2)c(O)c1,115 to 117
3,COc1ccc2c(C(F)(F)F)c(CC(=O)O)c(=O)oc2c1,198 to 200
4,CCOC(=O)CCNC=C(C(=O)OCC)C(=O)c1cc(F)c(Cl)c([N+](=O)[O-])c1Cl,107 to 108
5,CCN(CC)c1ccc(Nc2nc(N)c(C(=O)c3ccccc3[N+](=O)[O-])s2)cc1,202 to 205
6,C=CCOC(=O)c1ccc(O)c(C23CC4CC(CC(C4)C2)C3)c1F,219 to 222
7,Cc1nc(N)nc(N)c1C#CCc1ccccc1,145 to 149
8,CC(=O)NCCNc1nc(-c2ccccc2)nc2[nH]c(C(=O)N3CCOCC3)cc12,250
9,CN(C)CCCCCCCOc1ccc(-c2nnc(CSCCOc3ccccc3)o2)cc1,39 to 40
10,COc1cc(C=C(C#N)C(N)=O)c([N+](=O)[O-])cc1OC,265 to 266
11,O=C1c2ccccc2C2(c3ccc(Cl)cc3)NCCCCN12 (configuration not stated),134 to 135
12,OC(c1cccc(Br)n1)(C(F)(F)F)C(F)(F)F,67 to 69
13,C=CCn1c2ccccc2c2c(N)c(C(=O)OC)c(C)nc21,78 to 85
14,CCCCn1ccc(C(=O)c2cc(C(C)(C)C)c(O)c(C(C)(C)C)c2)c1,101 to 103
15,CCN(CCO)c1ccc(C(=O)OC)cc1,61 to 64
16,O=C(O)CCc1cc(Cl)ccc1C(=O)O,156 to 158
17,FC(F)(F)c1ccc(N2CCNCC2)nc1,45 to 47
18,Cc1c(N(C)C)c(F)cc2c(=O)[nH]c(=O)n(C3CC3)c12,238 to 239
19,CCOC(=O)c1cn2c3c(c(Br)c(F)cc3c1=O)OCC2C (configuration not stated),> 250
20,CCNC=C(C(=O)OCC)C(=O)c1cc(F)c(F)c(C)c1F,110
21,Cc1ccc(-c2c(Cl)ncn2-c2ccc(S(C)(=O)=O)cc2)cc1F,176
22,Cc1nc2ccccc2n2cnc(C(=O)OC(C)C)c12,182 to 183
23,CCCOc1ccc(/C=C/C(=O)N2CCOCC2)cc1-c1nc2c(c(C)nn2CCC)c(=O)[nH]1,156 to 157
24,CC(C)n1c(=O)c(=O)[nH]c2ccccc21,227 to 228
